The test system of the test is MN9D cells. Nature of the test: Dopamine content of MN9D cells in monolayer culture after incubation with protein (HPLC). The format is cell-based, mouse. The method, then: […] The MN9D cells on each plate were then collected in 10 ml of CMF, transferred to 15 ml centrifuge tubes and centrifuged at 1000×g for 5 min. The supernatant was removed and 600 μl of 0.5 N perchloric acid was added to the cell pellet which was then sonicated on ice for 10-15 s. The cell extract was centrifuged at 4000×g for 30 min and the supernatant stored at −80° C. for subsequent high pressure liquid chromatography (HPLC) analysis of MN9D cell dopamine content. The pellet was stored at −20° C. for subsequent protein analysis.
A second experiment was then conducted to determine whether this effect was due to a change in the doubling time (24 h) of the MN9D cells with increased cell production or was the result of an increase in cellular dopamine. […] Cells were removed from the plates and cell numbers determined by counting in a hematocytometer. Dopamine content was determined by HPLC analysis. […]
After this period, the MN9D cells on each plate are collected in 10 ml of CMF, transferred to 15 ml centrifuge tubes and centrifuged at 1000×g for 5 min. […] MN9D cell DA content is determined by reverse phase high pressure liquid chromatography with electrochemical detection (HPLC-ED) as previously described (Heller et al., 1993). […]

Turning to insulin growth factor II [IGF-II], the “effect on MN9D DA levels” value is given as “without effect”.
